According to patent publication US6962907B2, “Neurologically-active compounds” (The University of Sydney, priority 2001, dated 2005):
Entries after “also recorded” stand apart in the source; their conditions may differ. Where two headings read alike, the source gives them in different places.

Experiments:
[1] = molecular target: T1, GABAB (1b,2) receptor (Homo sapiens, UniProt Q9UBS5); assay: Two-electrode voltage clamp at GABAB (1b,2) receptors co-expressed with GIRK1 and GIRK4 in Xenopus oocytes; format: cell-based; details: for effect as agonist or antagonist: 300 μM compound; for current response to compound in the presence of GABA: 300 μM compound + 1 μM GABA; for current response to compound in the presence of GABA / response to compound alone: FIG. 10(a); for response to compound alone: 300 μM compound alone
T1 construct: expressed in transfected cells; host or cells: Xenopus laevis oocytes injected with mRNA
T1 sequence (Q9UBS5 1-844 isoform Q9UBS5-2): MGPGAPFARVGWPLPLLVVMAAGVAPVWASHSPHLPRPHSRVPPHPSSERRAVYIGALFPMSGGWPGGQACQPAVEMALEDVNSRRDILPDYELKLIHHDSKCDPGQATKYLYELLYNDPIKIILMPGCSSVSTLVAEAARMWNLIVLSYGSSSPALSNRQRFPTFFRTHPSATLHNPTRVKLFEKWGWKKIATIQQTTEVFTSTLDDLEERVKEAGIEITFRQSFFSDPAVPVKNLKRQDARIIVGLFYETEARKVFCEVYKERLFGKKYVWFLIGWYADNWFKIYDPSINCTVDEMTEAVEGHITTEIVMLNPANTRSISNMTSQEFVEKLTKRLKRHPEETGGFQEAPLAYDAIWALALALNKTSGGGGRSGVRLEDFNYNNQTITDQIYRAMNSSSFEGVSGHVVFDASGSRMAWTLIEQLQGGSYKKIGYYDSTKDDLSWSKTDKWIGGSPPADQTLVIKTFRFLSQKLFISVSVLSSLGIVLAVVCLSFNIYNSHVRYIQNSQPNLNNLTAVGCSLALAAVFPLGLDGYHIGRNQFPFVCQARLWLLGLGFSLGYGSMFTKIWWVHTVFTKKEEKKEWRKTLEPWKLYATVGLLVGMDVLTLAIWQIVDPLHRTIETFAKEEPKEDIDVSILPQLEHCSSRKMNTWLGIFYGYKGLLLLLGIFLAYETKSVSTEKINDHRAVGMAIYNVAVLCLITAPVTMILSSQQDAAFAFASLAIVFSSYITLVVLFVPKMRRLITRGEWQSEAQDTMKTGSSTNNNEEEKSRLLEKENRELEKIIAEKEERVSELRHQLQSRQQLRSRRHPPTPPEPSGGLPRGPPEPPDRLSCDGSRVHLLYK
T1 sequence (O75899 42-941 partner): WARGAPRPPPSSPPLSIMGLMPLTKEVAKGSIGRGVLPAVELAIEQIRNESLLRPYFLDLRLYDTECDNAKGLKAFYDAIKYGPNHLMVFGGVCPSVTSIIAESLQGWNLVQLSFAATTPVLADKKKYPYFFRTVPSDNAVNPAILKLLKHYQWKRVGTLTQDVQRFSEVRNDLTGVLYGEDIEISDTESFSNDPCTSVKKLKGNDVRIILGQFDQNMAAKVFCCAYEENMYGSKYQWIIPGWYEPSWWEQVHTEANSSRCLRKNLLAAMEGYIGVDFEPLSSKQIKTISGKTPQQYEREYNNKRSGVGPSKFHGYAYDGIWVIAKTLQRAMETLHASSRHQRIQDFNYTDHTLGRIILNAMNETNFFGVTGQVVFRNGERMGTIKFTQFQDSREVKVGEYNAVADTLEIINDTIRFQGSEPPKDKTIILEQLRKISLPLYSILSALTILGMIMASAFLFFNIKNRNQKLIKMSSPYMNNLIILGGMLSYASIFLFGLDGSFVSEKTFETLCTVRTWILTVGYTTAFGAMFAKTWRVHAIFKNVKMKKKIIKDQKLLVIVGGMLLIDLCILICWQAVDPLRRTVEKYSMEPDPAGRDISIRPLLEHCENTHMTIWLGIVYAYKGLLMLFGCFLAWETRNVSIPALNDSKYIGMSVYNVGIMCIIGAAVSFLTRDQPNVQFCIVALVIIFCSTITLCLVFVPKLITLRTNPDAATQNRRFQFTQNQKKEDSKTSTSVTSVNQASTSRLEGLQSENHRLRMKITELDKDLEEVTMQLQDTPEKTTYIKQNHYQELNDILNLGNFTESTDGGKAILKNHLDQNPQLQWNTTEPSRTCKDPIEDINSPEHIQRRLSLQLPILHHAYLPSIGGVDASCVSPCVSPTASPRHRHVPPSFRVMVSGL

[2] = molecular target: GABAC (ρ1) receptor (Homo sapiens, UniProt P24046); assay: Two-electrode voltage clamp at GABAC (ρ1) receptors expressed in Xenopus oocytes; details: for current response to compound in the presence of GABA: 100 μM compound + 1 μM GABA; for current response to compound in the presence of GABA / response to compound alone / current response to GABA alone: FIG. 11(a); for response to compound alone: 100 μM compound alone; for Hill coefficient (nH) for GABA in the presence of the antagonist / I/Imax, maximal GABA response maintained in the presence of the antagonist: (±)-cis 40 μM or (±)-trans 30 μM; for I/Imax, maximal GABA response maintained in the presence of the antagonist / type of antagonism: FIG. 12; for type of antagonism: parallel shift of the GABA dose-response curves; for inhibition at 100 µM: read-out: inhibition of the GABA response
GABAC (ρ1) receptor, sequence (P24046 22-479): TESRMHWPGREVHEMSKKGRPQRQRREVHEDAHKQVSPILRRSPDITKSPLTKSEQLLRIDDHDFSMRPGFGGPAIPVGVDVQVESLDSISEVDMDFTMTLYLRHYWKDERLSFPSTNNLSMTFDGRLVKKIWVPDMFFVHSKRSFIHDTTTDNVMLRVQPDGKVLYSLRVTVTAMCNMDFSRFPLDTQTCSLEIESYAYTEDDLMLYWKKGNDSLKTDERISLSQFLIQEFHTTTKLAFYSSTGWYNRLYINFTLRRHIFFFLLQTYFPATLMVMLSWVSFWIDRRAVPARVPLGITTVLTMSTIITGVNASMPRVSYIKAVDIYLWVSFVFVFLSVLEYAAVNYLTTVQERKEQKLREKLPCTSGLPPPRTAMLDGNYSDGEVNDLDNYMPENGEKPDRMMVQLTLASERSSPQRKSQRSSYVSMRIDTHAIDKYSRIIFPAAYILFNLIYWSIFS
Method: (§1) For example, ρ1 GABAC receptor subunit subcloned in ρ1 cDNA 1.1 and is linearised using the restriction enzyme Xbal . Following this, the mRNA is then prepared from the linearised ρ1 subunit using T7 polymerase. This genetic material is then injected into the Xenopus laevis oocytes and incubated for 2 to 9 days, to allow for the process of translation to occur. After this process the Xenopus laevis oocytes show expression of the receptor and ion channel assembly on the cell surface.
(§2) Female Xenopus laevis frogs were anaesthetised with tricaine (850 mg/500 mL) and a lobe of their ovaries surgically removed. […] Stage V-VI oocytes were collected and stored in Frog Ringer (ND96) wash solution (96 mM NaCI, 2 mM KCI, 1 mM MgCl2.6H20, 1.8 mM CaCl2.2H2O, 5 mM HEPES (hemi-Na salt), pH 7.5) supplemented with 2.5 mM sodium pyruvate, 0.5 mM theophylline, and 50 μg/mL gentamicin.
(§3) Micropipettes were prepared by the microprocessor-controlled vertical pipette puller (World Precision Instruments) and bevelled to a tip diameter of 10-20 μm. The micropipettes were filled with mineral oil to ensure the mRNA solution would be drawn up into the micropipette under negative pressure. A Nanoject injector (World Precision Instruments) was used to deliver GABAA, GABAB or GABAC mRNA (50 nL) into the cytoplasm of the Xenopus oocytes. After injection with the appropriate mRNA, the oocytes were placed in a storage solution of ND96 wash solution supplemented with 2.5 mM sodium pyruvate, 0.5 mM theophylline and gentamicin (50 μg/mL) and stored on a slow speed rotator in an 18° C. controlled temperature incubator (Contherm, Petone, NZ). The storage solution was changed daily (or twice daily) and dead or unhealthy oocytes were removed to prolong the health of the remaining cells.
(§4) Prior to recording, 100 mM stock solutions of (±)-cis- and (±)-trans-3-ACPBPA were prepared using autoclaved MilliQ water and stored at −20° C. […] At the time the experiments were to be recorded, the stock solutions were diluted with ND96 wash solution for testing on GABAA and GABAC receptors or 45 mM K^+ solution (45 mM NaCI, 45 mM KCI, 1 mM MgCl2.6H2O, 1.8 mM CaCl2.2H2O, 5 mM HEPES (hemi-Na salt), pH 7.5 at 25° C.) for testing on GABAB receptors.
(§5) After 2 to 9 days of incubation, receptor activity using two-electrode voltage clamp recordings were acquired by means of a Geneclamp 500 amplifier (Axon Instruments Inc., Foster City, Calif., USA), a MacLab 2e recorder (AD Instruments, Sydney, Australia) and Chart™ v.3.6.3 for Macintosh (AD Instruments) to digitise the current and voltage signals.
(§6) The recording microelectrodes were prepared from borosilicate glass capillaries (1.2 mm i.d.×0.94 mm o.d.; Clark Electromedical Instruments, Pangbourne, UK) using a micropipette puller (World Precision Instruments). The microelectrodes (tip resistances 0.5-1.5 MΩ) were filled with 3 M potassium chloride and a microscope was used to direct the insertion of these microelectrodes into the oocyte positioned in the cell bath. The membrane potential of the oocyte was then voltage-clamped at −60 mV.
(§7) Oocytes with an adequate level of receptor expression (with maximal currents (I)≧50 nA) were used for subsequent recording. […] Oocytes were washed for 3-4 minutes between applications of drug doses to ensure for receptor recovery.

[3] = molecular target: T2, GABAB (1a,2) receptor (Homo sapiens, UniProt Q9UBS5); assay: Two-electrode voltage clamp at GABAB (1a,2) receptors co-expressed with GIRK1 and GIRK4 in Xenopus oocytes; format: cell-based; details: for effect as agonist or antagonist: 300 μM compound; for current response to compound in the presence of GABA: 300 μM compound + 3 μM GABA; for current response to compound in the presence of GABA / response to compound alone: FIG. 10(b); for response to compound alone: 300 μM compound alone
T2 construct: expressed in transfected cells; host or cells: Xenopus laevis oocytes injected with mRNA
T2 sequence (Q9UBS5 15-961 limits assumed): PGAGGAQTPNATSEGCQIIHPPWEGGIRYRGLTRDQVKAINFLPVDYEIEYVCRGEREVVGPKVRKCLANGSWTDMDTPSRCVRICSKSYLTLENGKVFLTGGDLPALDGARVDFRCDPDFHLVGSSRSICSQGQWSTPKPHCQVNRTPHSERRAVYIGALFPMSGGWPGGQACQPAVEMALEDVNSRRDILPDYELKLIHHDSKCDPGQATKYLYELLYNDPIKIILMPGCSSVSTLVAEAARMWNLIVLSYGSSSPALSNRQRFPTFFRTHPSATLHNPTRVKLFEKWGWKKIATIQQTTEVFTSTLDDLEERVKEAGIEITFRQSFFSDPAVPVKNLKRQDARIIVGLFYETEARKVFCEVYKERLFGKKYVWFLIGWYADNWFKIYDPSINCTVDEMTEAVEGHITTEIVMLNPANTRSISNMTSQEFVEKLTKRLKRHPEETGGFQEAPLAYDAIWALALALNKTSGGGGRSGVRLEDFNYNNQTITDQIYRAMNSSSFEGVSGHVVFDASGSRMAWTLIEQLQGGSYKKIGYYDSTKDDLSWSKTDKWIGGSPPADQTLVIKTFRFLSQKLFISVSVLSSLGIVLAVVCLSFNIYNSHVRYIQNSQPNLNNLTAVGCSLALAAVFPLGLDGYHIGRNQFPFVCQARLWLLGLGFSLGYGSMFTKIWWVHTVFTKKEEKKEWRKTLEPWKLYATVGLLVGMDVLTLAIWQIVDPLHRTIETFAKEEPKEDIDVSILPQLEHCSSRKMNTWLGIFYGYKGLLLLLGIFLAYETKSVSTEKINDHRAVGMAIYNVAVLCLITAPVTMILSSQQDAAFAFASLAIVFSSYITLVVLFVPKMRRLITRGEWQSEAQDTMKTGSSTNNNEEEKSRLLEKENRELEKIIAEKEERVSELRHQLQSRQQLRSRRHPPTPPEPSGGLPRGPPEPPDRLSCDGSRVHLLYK
T2 sequence (O75899 42-941 partner): as the sequence (O75899 42-941 partner) above

[4] = molecular target: GABAB receptor (Homo sapiens, UniProt Q9UBS5); assay: Two-electrode voltage clamp at GABAB receptors (subtype not stated) expressed in Xenopus oocytes; details: for effect as agonists or antagonists: 300 μM compound; for inhibition at 1000 µM: read-out: inhibition of 1 μM GABA (weak antagonist effect); for EC50: read-out: EC50 as GABAB receptor agonist
GABAB receptor (Homo sapiens, UniProt Q9UBS5), sequence (Q9UBS5 20-961): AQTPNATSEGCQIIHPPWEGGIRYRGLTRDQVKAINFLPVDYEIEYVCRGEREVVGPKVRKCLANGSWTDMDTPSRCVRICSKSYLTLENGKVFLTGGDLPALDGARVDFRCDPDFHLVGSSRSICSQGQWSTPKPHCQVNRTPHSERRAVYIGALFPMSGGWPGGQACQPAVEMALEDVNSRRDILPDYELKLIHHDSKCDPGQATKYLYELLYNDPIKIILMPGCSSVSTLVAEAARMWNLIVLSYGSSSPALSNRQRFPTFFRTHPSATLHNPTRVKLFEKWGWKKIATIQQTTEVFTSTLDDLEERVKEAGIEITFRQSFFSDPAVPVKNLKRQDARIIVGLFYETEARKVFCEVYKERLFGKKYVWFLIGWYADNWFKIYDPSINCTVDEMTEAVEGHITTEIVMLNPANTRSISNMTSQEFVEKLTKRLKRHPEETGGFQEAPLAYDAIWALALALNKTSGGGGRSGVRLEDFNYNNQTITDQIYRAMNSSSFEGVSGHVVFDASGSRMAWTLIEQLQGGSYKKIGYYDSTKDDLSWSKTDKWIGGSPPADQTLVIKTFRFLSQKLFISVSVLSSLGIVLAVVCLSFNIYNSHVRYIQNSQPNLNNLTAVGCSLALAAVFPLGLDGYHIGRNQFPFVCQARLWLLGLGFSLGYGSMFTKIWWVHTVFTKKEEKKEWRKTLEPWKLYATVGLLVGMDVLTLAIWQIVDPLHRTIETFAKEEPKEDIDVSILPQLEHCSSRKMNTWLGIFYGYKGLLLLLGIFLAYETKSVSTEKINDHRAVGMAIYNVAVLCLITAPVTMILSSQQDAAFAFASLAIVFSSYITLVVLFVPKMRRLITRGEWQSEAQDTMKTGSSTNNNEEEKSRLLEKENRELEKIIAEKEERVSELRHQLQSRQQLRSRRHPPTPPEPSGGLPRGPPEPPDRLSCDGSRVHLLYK
GABAB receptor (Homo sapiens, UniProt Q9UBS5), sequence (O75899 42-941 partner): as the sequence (O75899 42-941 partner) above

[5] = molecular target: T3, GABAC (ρ3) receptor (Rattus norvegicus, UniProt P50573); assay: Two-electrode voltage clamp at GABAC (ρ3) receptors expressed in Xenopus oocytes; details: for current response to compound in the presence of GABA: 100 μM compound + 10 μM GABA; for response to compound alone: 100 μM compound alone; for inhibition at 100 µM: read-out: inhibition of the GABA response
T3 sequence (P50573 16-464): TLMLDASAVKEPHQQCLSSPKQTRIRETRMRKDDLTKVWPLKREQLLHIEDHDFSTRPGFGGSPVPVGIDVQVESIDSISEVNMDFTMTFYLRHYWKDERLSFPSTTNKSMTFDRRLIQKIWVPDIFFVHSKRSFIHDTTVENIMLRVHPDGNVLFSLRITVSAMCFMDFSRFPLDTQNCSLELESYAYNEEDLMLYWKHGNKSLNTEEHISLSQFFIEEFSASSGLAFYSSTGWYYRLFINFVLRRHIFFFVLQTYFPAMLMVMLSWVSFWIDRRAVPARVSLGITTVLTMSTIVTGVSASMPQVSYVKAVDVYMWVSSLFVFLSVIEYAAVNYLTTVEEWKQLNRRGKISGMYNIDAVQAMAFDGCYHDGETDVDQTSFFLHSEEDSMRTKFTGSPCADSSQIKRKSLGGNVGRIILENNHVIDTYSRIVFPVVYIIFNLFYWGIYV
Method: as §1, §2, §3, §4, §5, §6, §7

[6] = molecular target: GABAA (α2β2γ2s) receptor (Homo sapiens, UniProt P47869+P47870); assay: Two-electrode voltage clamp at GABAA (α2β2γ2s) receptors expressed in Xenopus oocytes; details: for effect as agonist or antagonist: 1 mM compound; for current response to compound in the presence of GABA: 1 mM compound + 3 μM GABA; for current response to compound in the presence of GABA / response to compound alone / current response to GABA alone: FIG. 9; for response to compound alone: 1 mM compound alone; for current response to GABA alone: oocyte clamped at −60 mV
Method: as §1, §2, §3, §4, §5, §6, §7

[7] = molecular target: GABAC (ρ2) receptor (Homo sapiens, UniProt P28476); assay: Two-electrode voltage clamp at GABAC (ρ2) receptors expressed in Xenopus oocytes; details: for current response to compound in the presence of GABA: 100 μM compound + 1 μM GABA; for current response to compound in the presence of GABA / response to compound alone / current response to GABA alone: FIG. 11(b); for response to compound alone: 100 μM compound alone; for inhibition at 100 µM: read-out: inhibition of the GABA response
GABAC (ρ2) receptor, sequence (P28476 21-465): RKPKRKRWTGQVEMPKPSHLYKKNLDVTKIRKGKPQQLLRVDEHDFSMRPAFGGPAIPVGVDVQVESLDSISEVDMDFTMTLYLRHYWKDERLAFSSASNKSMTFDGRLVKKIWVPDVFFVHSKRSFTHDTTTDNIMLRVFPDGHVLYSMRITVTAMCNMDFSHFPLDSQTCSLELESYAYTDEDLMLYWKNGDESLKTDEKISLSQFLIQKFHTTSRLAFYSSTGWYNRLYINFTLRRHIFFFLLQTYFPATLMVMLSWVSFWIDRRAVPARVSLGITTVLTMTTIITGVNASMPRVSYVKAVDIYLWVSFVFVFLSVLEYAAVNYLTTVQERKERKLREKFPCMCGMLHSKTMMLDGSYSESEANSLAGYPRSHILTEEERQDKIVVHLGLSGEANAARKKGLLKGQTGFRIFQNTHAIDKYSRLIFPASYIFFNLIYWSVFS
Method: as §1, §2, §3, §4, §5, §6, §7

[8] = molecular target: GABAC receptors; details: Woodward et al, 1993; read-out: KB as antagonist at GABAC receptors; cited from earlier work
[9] = molecular target: T4, GABAC receptor (Homo sapiens, UniProt P24046); details: cited from earlier work
T4 sequence (P24046 22-479): as the sequence (P24046 22-479) above

[10] = test system: GABAA receptors; details: TPMPA 300 μM; cited from earlier work
[11] = test system: GABAB receptor; details: dose of 500 μM; cited from earlier work
[12] = test system: GABAA receptors; assay: Activity of ACPMPA isomers at GABAA receptors (subtype not stated), as for ACPBPA; format: cell-based; details: for reduction of the current produced by GABA (10 μM): 300 μM compound
[13] = molecular target: T4, GABAC receptor; assay: Activity of ACPMPA isomers as GABAC receptor antagonists (subtype not stated), as for ACPBPA; format: cell-based; design: expressed in transfected cells; details: for Kb: read-out: KB as GABAC receptor antagonist

For `CCCCP(=O)(O)[C@H]1CC[C@@H](N)C1` (racemic) [(±)-cis-3-ACPBPA, (±)-cis-(3-aminocyclopentanyl)butylphosphinic acid], the Kb [1] was over 300 µM, the “effect as agonist or antagonist” value [1] was “did not act as an agonist or antagonist; also recorded: no apparent effect as an agonist or antagonist; also recorded: no effect as agonists or antagonists; also recorded: No effect” and the “current response to compound in the presence of GABA” value (from here on “current response to compound”) [1] was 20 nA. For the same compound, the “response to compound alone” value [1] was “no response was detected”, the Kb [2] was 12.5 ± 1.2 µM and the “antagonist activity in words” value [2] was “potent antagonists”. The “current response to compound” value [2] was 2 nA, the “response to compound alone” value [2] was “no recordable response” and the “Hill coefficient (nH) for GABA in the presence of the antagonist” value [2] was 2.3±0.2. For the same compound, the “I/Imax, maximal GABA response maintained in the presence of the antagonist” value [2] was 0.91±0.02, the type of antagonism [2] was “competitive antagonists” and the “potency relative to (±)-trans-3-ACPBPA” value ([2]; ratio of estimated KB values) was 3.5 times. The inhibition at 100 µM [2] was about 100%, the Kb [3] was over 300 µM and the “effect as agonist or antagonist” value [3] was “did not act as an agonist or antagonist; also recorded: no apparent effect as an agonist or antagonist; also recorded: no effect as agonists or antagonists; also recorded: No effect”. The “current response to compound” value [3] was 405 nA, the “response to compound alone” value [3] was “no response was detected” and the Kb [4] was over 1000 µM. For the same compound, the “effect as agonists or antagonists” value [4] was “no effect as agonists or antagonists”, the inhibition at 1000 µM [4] was 10% and the “antagonist activity in words” value [5] was “potent antagonists”. For the same compound, the “current response to compound” value ([5]; FIG. 11(c)) was 120 nA, the “response to compound alone” value ([5]; FIG. 11(c)) was “no measurable response” and the inhibition at 100 µM [5] was 85%. For the same compound, the “effect as agonist or antagonist” value [6] was “did not act as an agonist or antagonist; also recorded: no effect as an agonist or antagonist; also recorded: no effect as an agonist or an antagonist; also recorded: No effect”, the “current response to compound” value [6] was 65 nA and the “response to compound alone” value [6] was “no response was detected”. The “antagonist activity in words” value [7] was “potent antagonists”, the “current response to compound” value [7] was 4 nA and the “response to compound alone” value [7] was “no detectable response”. It also gave an inhibition at 100 µM [7] of about 100%.
With `CCCCP(=O)(O)[C@@H]1CC[C@@H](N)C1` (racemic) [(±)-trans-3-ACPBPA, (±)-trans-(3-aminocyclopentanyl)butylphosphinic acid] the Kb [1] was over 300 µM, the “effect as agonist or antagonist” value [1] was “did not act as an agonist or antagonist; also recorded: no apparent effect as an agonist or antagonist; also recorded: no effect as agonists or antagonists; also recorded: No effect” and the “current response to compound” value [1] was 15 nA. For the same compound, the “response to compound alone” value [1] was “no detectable response”, the Kb [2] was 43.8 ± 5.1 µM and the “antagonist activity in words” value [2] was “potent antagonists”. For the same compound, the “current response to compound” value [2] was 34 nA, the “response to compound alone” value [2] was “no detectable response” and the “Hill coefficient (nH) for GABA in the presence of the antagonist” value [2] was 2.2±0.2. For the same compound, the “I/Imax, maximal GABA response maintained in the presence of the antagonist” value [2] was 0.94±0.05, the type of antagonism [2] was “competitive antagonists” and the inhibition at 100 µM [2] was 77%. For the same compound, the Kb [3] was over 300 µM, the “effect as agonist or antagonist” value [3] was “did not act as an agonist or antagonist; also recorded: no apparent effect as an agonist or antagonist; also recorded: no effect as agonists or antagonists; also recorded: No effect” and the “current response to compound” value [3] was 407 nA. The “response to compound alone” value [3] was “no detectable response”, the Kb [4] was over 1000 µM and the “effect as agonists or antagonists” value [4] was “no effect as agonists or antagonists”. The inhibition at 1000 µM [4] was 10%, the “antagonist activity in words” value [5] was “potent antagonists” and the “current response to compound” value ([5]; FIG. 11(c)) was 455 nA. For the same compound, the “response to compound alone” value ([5]; FIG. 11(c)) was “no visible response”, the inhibition at 100 µM [5] was 45% and the “effect as agonist or antagonist” value [6] was “did not act as an agonist or antagonist; also recorded: no effect as an agonist or antagonist; also recorded: no effect as an agonist or an antagonist; also recorded: No effect”. For the same compound, the “current response to compound” value [6] was 60 nA, the “response to compound alone” value [6] was “no detectable response” and the “antagonist activity in words” value [7] was “potent antagonists”. For the same compound, the “current response to compound” value [7] was 17 nA, the “response to compound alone” value [7] was “no measurable response” and the inhibition at 100 µM [7] was 32%.
In the case of `NCCCP(=O)(O)O` [3-APA, 3-aminopropylphosphonic acid], the Kb [8] is given as 1.8 µM.
In the case of `NCCC[PH](=O)O` [CGP27492, 3-aminopropylphosphinic acid], the Kb [8] is given as 0.8 µM.
In the case of `CP(=O)(O)CCCN` [CGP35024, (3-aminopropyl)methylphosphinc acid], the Kb [8] is listed as 0.8 µM.
In the case of `NCCCC(=O)O` [GABA, γ-Aminobutyric acid, reference compound], the “current response to GABA alone” value ([2]; GABA 1 μM) is reported as 105 nA, the “current response to GABA alone” value ([2]; GABA 10 μM) is reported as 142 nA and the “Hill coefficient (nH) for GABA alone” value ([2]; GABA dose-response curve) is reported as 1.9±0.3. For the same compound, the “current response to GABA alone” value ([5]; GABA 10 μM, FIG. 11(c)) was 880 nA, the “current response to GABA alone” value ([6]; GABA 3 μM) was 65 nA and the “current response to GABA alone” value ([6]; GABA 300 μM) was 1180 nA. The “current response to GABA alone” value ([7]; GABA 1 μM) was 23 nA and the “current response to GABA alone” value ([7]; GABA 100 μM) was 35 nA.
For `CP(=O)(O)C1=CCNCC1` [TPMPA], the “selectivity for GABAC than GABAA receptors” value [9] is listed as 100 times, the “selectivity for GABAC than GABAB receptors” value [9] is listed as 500 times and the “reduction of the current produced by GABA (10 μM)” value (“reduction of the current produced” below) [10] is listed as 67%. For the same compound, the “activation of the GABAB receptor” value [11] was “about 30%”.
In the case of “(±)-cis-(3-Aminocyclopentanyl)methylphosphinic acid [(±)-cis-3-ACPMPA]”, the “GABAA antagonist activity in words” value [12] is reported as “very weak activity as antagonists”, the “reduction of the current produced” value [12] is reported as 8% and the “GABAB agonist activity in words” value [4] is reported as “moderately potent GABAB receptor agonists”. The EC50 [4] was 50 µM, the “selectivity for GABAC than GABAA receptors” value [13] was “more than 100 times” and the “selectivity for GABAC than GABAB receptors” value [13] was 50 times. For the same compound, the “times more potent than (±)-cis-3-ACPBPA at the GABAC receptors” value [13] was 12 times, the “times more potent than TPMPA” value [13] was 2 times and the Kb [13] was 1 µM.
With “(±)-trans-(3-Aminocyclopentanyl)methylphosphinic acid [(±)-trans-3-ACPMPA]” the “GABAA antagonist activity in words” value [12] was “very weak activity as antagonists”, the “reduction of the current produced” value [12] was 11% and the “GABAB agonist activity in words” value [4] was “moderately potent GABAB receptor agonists”. For the same compound, the EC50 [4] was 160 µM, the “selectivity for GABAC than GABAA receptors” value [13] was 45 times and the “selectivity for GABAC than GABAB receptors” value [13] was 24 times. For the same compound, the “times less potent than TPMPA” value [13] was 3 times and the Kb [13] was 6.6 µM.
